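48-hour exposure; five concentrations; linearly interpolated endpoints. The concentration for full growth arrest is given as TGI.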
Assays:
Assay in all cases: inhibition of tumour cell growth, NCI panel, 48 h
SF-539 CNS = test system: SF-539 CNS
SK-MEL-28 melanoma = test system: SK-MEL-28 melanoma
OVCAR-8 ovarian = test system: OVCAR-8 ovarian
IGROV1 ovarian = test system: IGROV1 ovarian
HCT-116 colon = test system: HCT-116 colon
CAKI-1 renal = test system: CAKI-1 renal
NCI-H460 lung = test system: NCI-H460 lung
KM20L2 colon = test system: KM20L2 colon
HL-60(TB) leukemia = test system: HL-60(TB) leukemia
OVCAR-5 ovarian = test system: OVCAR-5 ovarian
A549 NSCLC = test system: A549 NSCLC
NCI-H23 lung = test system: NCI-H23 lung
SNB-19 CNS = test system: SNB-19 CNS
UO-31 renal = test system: UO-31 renal
RPMI-8226 leukemia = test system: RPMI-8226 leukemia
SF-295 CNS = test system: SF-295 CNS
SR leukemia = test system: SR leukemia
A498 renal = test system: A498 renal
HS 578T breast = test system: HS 578T breast
MDA-N = test system: MDA-N

Compound | TGI (SF-539 CNS) [µM] | TGI (SK-MEL-28 melanoma) [µM] | TGI (OVCAR-8 ovarian) [µM] | TGI (IGROV1 ovarian) [µM] | TGI (HCT-116 colon) [µM] | TGI (CAKI-1 renal) [µM] | TGI (NCI-H460 lung) [µM] | TGI (KM20L2 colon) [µM] | TGI (HL-60(TB) leukemia) [µM] | TGI (OVCAR-5 ovarian) [µM] | TGI (A549 NSCLC) [µM] | TGI (NCI-H23 lung) [µM] | TGI (SNB-19 CNS) [µM] | TGI (UO-31 renal) [µM] | TGI (RPMI-8226 leukemia) [µM] | TGI (SF-295 CNS) [µM] | TGI (SR leukemia) [µM] | TGI (A498 renal) [µM] | TGI (HS 578T breast) [µM] | TGI (MDA-N) [µM]
Nc1ccc(C(=O)NN2C(=O)C(Cl)C2c2ccccc2O)cc1 (stereo unspecified) | > 100 | > 100 | > 100 | > 100 | > 100 | > 100 | > 100 | > 100 | 48 | > 100 | > 100 | > 100 | > 100 | 75.2 | > 100 | > 100 |  |  |  | 
O=S1c2ccc(Cl)cc2CC(SSC2Cc3cc(Cl)ccc3S(=O)c3ccccc32)c2ccccc21 (stereo unspecified) | > 100 | > 100 | > 100 | > 100 | > 100 | > 100 | > 100 | > 100 | > 100 | > 100 | > 100 | > 100 | > 100 | > 100 | > 100 | > 100 |  |  |  | 
CN(CCO)c1nc2c(c(=O)[nH]1)CNCC2 | > 100 | > 100 | > 100 | > 100 | > 100 | > 100 | > 100 | > 100 | > 100 | > 100 | > 100 | > 100 | > 100 | > 100 | > 100 | > 100 | > 100 |  |  | 
CSC(=N)N1N=C2c3ccccc3CC[C@@H]2[C@@H]1c1ccccc1 | 27.2 | 29.8 | 29.1 | 34.8 | 17.7 |  | 27.2 | 25.6 | 34.6 | 34.7 | 34.2 | 35.3 | 34 | 22.4 | 35.5 | 27.9 | 30.9 | 35.2 |  | 
C/C(=C/CNc1ncnc2c1ncn2CCC#N)CO | > 100 | > 100 | > 100 | > 100 | > 100 | > 100 | > 100 |  | > 100 | > 100 | > 100 | > 100 | > 100 | > 100 | > 100 | > 100 | > 100 | > 100 | > 100 | > 100
CCOC(=O)C1C(c2ccc([N+](=O)[O-])cc2)NC(c2ccc([N+](=O)[O-])cc2)C(C(=O)OC)S1(=O)=O (stereo unspecified) |  | > 100 | > 100 | > 100 | > 100 | > 100 | > 100 | > 100 | > 100 | > 100 | > 100 | > 100 | > 100 | > 100 | > 100 | > 100 | > 100 |  |  | 
COc1cc(-c2c(C)c(C)nc(OC)c2C#N)cc(OC)c1OC | > 100 | > 100 | > 100 | > 100 | > 100 |  | > 100 | > 100 | > 100 |  | > 100 | > 100 | > 100 | > 100 | > 100 | > 100 |  | > 100 |  | 
COc1cc(CCCC(O)COc2cccc3c2C2(O)CCCCCC32)cc(OC)c1 (stereo unspecified) | 28.1 | 31.1 | 37.8 | 28.5 | 31.5 | 44.4 | 34.7 | 28.1 | 45.9 | 31.5 | 30.8 | 32.6 | 32 | 28.9 | 42 | 30.5 |  | 34.1 |  | 
CCCCCCCCCCCCNC1(C)CNCCCNCCNCCCNC1 | 3.29 | 3.29 | 2.92 | 2.35 | 2.59 | 3.63 | 2.69 | 3.1 |  | 4.54 | 3.2 | 3.12 |  | 5.83 | 3.55 | 2.88 | 3.58 |  |  | 
C/C(=N/NC(=S)N1CCCC1)c1cccc(/C(C)=N\NC(=S)N2CCCC2)n1 | 3.72 | 5.09 | 2.35 | 37.1 | 3.28 | 3.37 | 3.63 |  | 4.88 | 6.85 | 9.01 | 6.5 | 12.1 | 2.11 | 18.1 | 2.24 | 7.58 | 2.59 | 25.2 | 3.89
C#C[C@]1(O)CC[C@H]2[C@@H]3CCC4=C/C(=N\OCCN5CCCC5)CC[C@]4(C)[C@H]3CC[C@@]21C | 28.2 | 44.6 | 40.7 | 23.2 | 28.7 | 39.1 | 40.6 |  | 8.57 | 50.3 | > 59.8 | 31.3 | 32.2 | 32.9 | 13.2 | 14.5 | 13.3 | 50.4 | 21.7 | 11.3

From PubChem BioAssay (NCI)
